Test results: patent US9895410B2, “Methods for preventing and treating oral cancers” (Cornell University, priority 2013, dated 2018)

Tests used:
PTGS2 = test: Immunohistochemistry of mouse tongue sections for PTGS2 (Cox-2); type: in vivo, mouse (C57BL/6); conditions: 4-NQO + peptide vs 4-NQO+saline; four mice per group
Method: (§1) Six-week old wild-type C57BL/6 female mice (purchased from the Jackson Laboratory) were used for this study. The mice were maintained on a normal chow (Lab-diet with constant nutrition, Lab-Diet Co, St. Louis, Mo.) and under controlled conditions with a 12 hour light/dark cycle. The mice were randomly divided into an experimental group in which mice received drinking water that contained 100 μg/ml 4-nitroquinoline 1-oxide (4-NQO) (Sigma, St. Louis, Mo.) and a control group in which mice received drinking water that contained propylene glycol (vehicle for 4-NQO). The treatment lasted for 10 weeks after which the mice received regular drinking water. […] Mouse body weights and precancerous and cancerous lesions were monitored in the oral cavities at different times for up to 15 weeks, or until signs of sickness or weight loss. […]
(§2) Immunohistochemistry. […] The sections were incubated with secondary antibodies (1:200, anti-mouse IgG from the M.O.M kit for p16; ready to use anti-rabbit IgG from the Invitrogen SuperPicture kit for Cox-2; and ready to use anti-mouse IgG from the Dako Envision™ HRP (DAB+) kit for mouse PCNA). […] Four to five representative areas of each mouse tongue section were photographed and analyzed.

PCNA = test: Immunohistochemistry of mouse tongue sections for PCNA; type: in vivo, mouse (C57BL/6); conditions: 4-NQO + peptide vs 4-NQO+saline; tongue regions with and without visible lesions; four mice per group
Method: as §1, §2

[1] = system: mouse tongue tumors induced by 4-NQO; test: 4-NQO mouse model of oral carcinogenesis: gross tongue lesion multiplicity and severity grading; type: in vivo, mouse (C57BL/6)
Method: A mouse model of oral squamous cell carcinomas or oral cancers was developed by exposing the animals to the carcinogen 4-nitroquinoline 1-oxide (4-NQO) via drinking water.
Six-week old wild-type C57BL/6 female mice (purchased from the Jackson Laboratory) were used for this study. The mice were maintained on a normal chow (Lab-diet with constant nutrition, Lab-Diet Co, St. Louis, Mo.) and under controlled conditions with a 12 hour light/dark cycle. […] Mouse body weights and precancerous and cancerous lesions were monitored in the oral cavities at different times for up to 15 weeks, or until signs of sickness or weight loss. […]
(§3) Tissue dissection, lesion grade measurement, and pathological diagnosis. […] Gross lesions were identified and photographed, and visible cancerous lesions on the tongues were counted. The multiplicity of lesions (number of lesions per mouse) was assessed with a 10× magnification. The severity of gross lesions on the tongues was quantified by a grading system that included 0 (no lesion), 1 (mild lesion), 2 (intermediate lesion), 3 (severe lesion), and 4 (most severe lesion) in a double blinded manner. […]

[2] = system: mouse tongue tumors induced by 4-NQO; test: 4-NQO mouse model: histological diagnosis of squamous neoplasia on H&E stained tongue sections; type: in vivo, mouse (C57BL/6); conditions: 4-NQO 10 weeks, then peptide 2.5 mg/kg/day s.c. 2 days/week for 15 weeks; four mice per group; 75% in 4-NQO+saline; p=0.07
Method: as §1, §3

p16 = test: Immunohistochemistry of mouse tongue sections for p16; type: in vivo, mouse (C57BL/6); conditions: peptide injections after 4-NQO treatment vs 4-NQO+saline; four mice per group
Method: as §1, §2

[3] = system: several mammalian cell types; conditions: energy-independent manner; cited from earlier work

Substance	PTGS2 protein levels in tongues (PTGS2)	PCNA positive cells in tongue epithelium (PCNA)	average number of cancerous tongue lesions per mouse (multiplicity) ([1]; 4-NQO 100 μg/ml in drinking water 10 weeks, then peptide 2.5 mg/kg/day s.c. on 2 days each week for 15 weeks, 10 mice/group, p<0.05 vs 4-NQO+saline (6.5±2.9))	percentage of less severe tongue lesions of grades 0-2 ([1]; 4-NQO 10 weeks, then peptide 2.5 mg/kg/day s.c. 2 days/week for 15 weeks, grading 0-4, p<0.05 vs 4-NQO+saline (Fisher's exact test))	percentage of mice that developed severe dysplasia, carcinoma in situ, and invasive carcinoma [2]	p16 protein levels in tongue epithelium (p16)	penetration of the plasma membrane [3]
D-Arg-2′,6′-Dmt-Lys-Phe-NH2	greatly reduced levels in PTGS2 protein	obvious lower numbers of PCNA positive cells	3.3±2.2	100%	25%	greatly limited the 4-NQO-induced decrease in p16 protein levels	–
2′,6′-Dmt-D-Arg-Phe-Lys-NH2	–	–	–	–	–	–	readily penetrates the plasma membrane
